Measurements from patent publication EP2098236A1, “Cytostatic compositions” (Medizinische Hochschule Hannover, priority 2008, dated 2009).

How the values were obtained:
[1] = test system: TPMT wildtype lymphoblastoid cells; assay: cells; conditions: Homo sapiens, Lymphoblastoid cell, 72 h, read-out: Mean percentage viable cells after 72 h
[2] = in vivo; cited from earlier work
[3] = test system: patients with childhood ALL; conditions: cited from earlier work; for central nervous system (CNS) relapse: COALL-92, maintenance, p = 0.053
[4] = test system: childhood ALL; conditions: CCG-1952, cited from earlier work; for event-free survival: at 5 years, p = 0.02
[5] = test system: childhood ALL; conditions: UK MRC ALL 97, cited from earlier work

Row | Compound | viability at 0.125 µM [1] | viability at 0.25 µM [1] | viability at 0.5 µM [1] | viability at 1 µM [1] | half lives [2] | central nervous system (CNS) relapse [3] | Treatment interruptions ([3]; COALL-92) | event-free survival [4] | patients who developed non-fatal hepatic toxicity with features of veno-occlusive disease (VOD) [5] | viability at 0.0625 µM [1] | Treatment interruptions, higher rate compared to the 6-mercaptopurine arm ([3]; COALL-92) | incidence of thrombocytopenia (< 100 x 10^9/l) without evidence of leukocytopenia (<1 x 10^9/l), higher compared to the 6-mercaptopurine arm ([3]; COALL-92) | patients with hepatic VOD-like symptoms [4] | isolated disease recurrence in the CNS, odds ratio ([5]; vs 6-mercaptopurine, 95% confidence interval 0.30 - 0.92) | risk of death in remission, odds ratio ([5]; vs 6-mercaptopurine, 95% confidence interval 1.20 - 4.14, mainly due to infections)
1 | Sc1ncnc2nc[nH]c12 [MP, 6-mercaptopurine] | 89.3% | 84.7% | 79.8% | 73.1% | approximately 21 minutes | 0.8% | 2.8 % of maintenance treatment weeks | 77.1% | less than 2% | – | – | – | – | – | –
2 | Nc1nc2nc[nH]c2c(=S)[nH]1 [TG, 6-thioguanine] | 75.9% | 71.3% | – | – | ~90 min | 3.4% | 4.7 % of maintenance treatment weeks | 85.1% | 11% | 81.2% | 1.7 fold | 7.5 fold | approximately 20% | 0.53 | 2.22
